According to US7208266B2, “Endogenous coagulation activator compounds —use in exploring endogenous coagulation” (Societe Diagnostica-Stago, priority 2001, dated 2007):

Legend:
Assay type in all cases: biochemical
endogenous coagulation [1] = assay: APTT coagulation time, reagents from amides or esters of gallic acid (Example 2); settings: gallic acid derivative 100 μM
endogenous coagulation [2] = assay: as above; settings: for Coagulation time, CCN / Coagulation time, CCP / Coagulation time, Heparins Batch 0811 / Coagulation time, Lupus Batch 021 / Coagulation time, Pool N LIK 800 / Coagulation time, Heparins Batch 1706: gallic acid derivative 100 μM
From the text: Thus, the invention also concerns a method for measuring the activated partial thromoboplastin time (APTT) comprising the steps of: • bringing a platelet-depleted plasma sample into contact with compounds or compositions in accordance with the invention, in the presence of substitutes for the phospholipids of the platelet membrane, under conditions that allow activation of the endogenous coagulation pathway; • adding Ca^2+ ions in a quantity equivalent to the quantity of these ions that have been complexed in the plasma sample; • measuring the time required to transform fibrinogen into fibrin.
In particular, within the context of carrying out the above method, the plasma sample is constituted by a platelet-depleted plasma and a coagulation activator is incubated with the plasma for a period of about 2 to 5 minutes, at 37° C. The phospholipid membrane substitutes are either added from the start of the reaction, or mixed with the activator, or added individually during the reaction.
Then the calcium ions are added, for example in the form of calcium chloride in a concentration in the range 20 mM to 25 mM. The time required for fibrin formation is then measured.
In the next example, the coagulation times for different plasmas were determined from APTT reagents obtained from amides or esters of gallic acid. • normal plasmas=pool of equivalent quantities of plasmas from normal subjects; • CCN=coag. control normal: control plasma, normal level; • CCP=coag. control patho: control plasma, disease level; • heparins=plasmas from patient receiving an anticoagulating treatment based on non-fractionated heparin in the form of sodium or calcium salts; • lupus=plasma from a patient presenting with Lupus anticoagulant Syndrome; • def.f VIIIc=plasma from a patient presenting with a f VIIIc deficit (haemophilia A).

endogenous coagulation [3] = assay: APTT coagulation time, activation kinetics of ethylene glycol gallate heated at 80° C. (Example 3); settings: 500 μM in solution buffered to pH 7.00, after heating for 24 hours at 80° C.
Protocol: After heating for 24 hours at 80° C., 500 μM of ethylene glycol gallate in solution buffered to a pH of 7.00 became active in an APTT coagulation test.
The procoagulating activity of the ethylene glycol gallate solution was compared with that of a reference reagent: CK-PREST, an APTT reagent in which the activator is kaolin. The instrument used to measure the coagulation time was an automated STA Diagnostica Stago haemostasis instrument (series n° 307).
The test plasmas were quality control plasmas:
CCN=coag control normal; CCP=coag control patho, batch n° 980901.
APTT reagent produced=ethylene glycol gallate, 500 μM, oxidised at 80° C.+Tricine, […], pH 7.00+cephaline (substitute for platelet phospholipids).

endogenous coagulation [4] = assay: APTT coagulation time versus ethylene glycol gallate concentration (Example 6)
Protocol: The coagulating activity of an APTT reagent requires the joint action of two active principles: • a molecule activating the contact phase of the endogenous pathway. In fact, this was ethylene glycol gallate activated by heating to 80° C.; • a substitute for the phospholipids of the platelet membrane, cephaline, obtained by extracting rabbit brains with chloroform;
Optimum activity of the APTT reagent thus constituted depends on the concentrations of ethylene glycol gallate and cephaline.
The following tables show the results obtained for representative plasmas for different disorders and for some controls.

[5] = Ethylene Glycol gallate 1000 μM

N[C@@H](CO)C(=O)O [H2N—CH—(CH2OH)—COOH]
Coagulation time, f VII def 25% (endogenous coagulation [1]): 153.0 s | Coagulation time, CCN (endogenous coagulation [2]): 210.9 s | Coagulation time, CCP (endogenous coagulation [2]): 189.3 s | Coagulation time, Heparins Batch 0811 (endogenous coagulation [2]): >300.0 s | Coagulation time, Lupus Batch 021 (endogenous coagulation [2]): 232.6 s | Coagulation time, Pool N LIK 800 (endogenous coagulation [2]): 245.0 s

O=C(OCCO)c1cc(O)c(O)c(O)c1 [ethylene glycol gallate]
Activity in an APTT coagulation test (endogenous coagulation [3]): became active | Coagulation time, f VII def 25% (endogenous coagulation [1]): 35.6 s | Coagulation time Control batch n° 80901 Normal (endogenous coagulation [4]; Ethylene Glycol gallate 10 μM): 130.6 s | Coagulation time Control batch n° 80901 Path (endogenous coagulation [4]; Ethylene Glycol gallate 10 μM): >140.0 s | Coagulation time Plasma (LA) MA 030 (endogenous coagulation [4]; Ethylene Glycol gallate 10 μM): >140.0 s | Coagulation time Plasma def f VIIIc (endogenous coagulation [4]; Ethylene Glycol gallate 10 μM): 121.9 s | Coagulation time Plasmas Heparins Batch 1635 (endogenous coagulation [4]; Ethylene Glycol gallate 10 μM): >140.0 s | Coagulation time Plasmas Heparins Batch 1726 (endogenous coagulation [4]; Ethylene Glycol gallate 10 μM): >140.0 s | Coagulation time Control batch n° 80901 Normal (endogenous coagulation [4]; Ethylene Glycol gallate 25 μM): 124.5 s | Coagulation time Control batch n° 80901 Path (endogenous coagulation [4]; Ethylene Glycol gallate 25 μM): 103.3 s | Coagulation time Plasma (LA) MA 030 (endogenous coagulation [4]; Ethylene Glycol gallate 25 μM): 103.3 s | Coagulation time Plasma def f VIIIc (endogenous coagulation [4]; Ethylene Glycol gallate 25 μM): 73.1 s | Coagulation time Plasmas Heparins Batch 1635 (endogenous coagulation [4]; Ethylene Glycol gallate 25 μM): >140.0 s | Coagulation time Plasmas Heparins Batch 1726 (endogenous coagulation [4]; Ethylene Glycol gallate 25 μM): >140.0 s | Coagulation time Control batch n° 80901 Normal (endogenous coagulation [4]; Ethylene Glycol gallate 50 μM): 88.6 s | Coagulation time Control batch n° 80901 Path (endogenous coagulation [4]; Ethylene Glycol gallate 50 μM): 99.6 s | Coagulation time Plasma (LA) MA 030 (endogenous coagulation [4]; Ethylene Glycol gallate 50 μM): 66.6 s | Coagulation time Plasma def f VIIIc (endogenous coagulation [4]; Ethylene Glycol gallate 50 μM): 44.8 s | Coagulation time Plasmas Heparins Batch 1635 (endogenous coagulation [4]; Ethylene Glycol gallate 50 μM): 73.1 s | Coagulation time Plasmas Heparins Batch 1726 (endogenous coagulation [4]; Ethylene Glycol gallate 50 μM): >140.0 s | Coagulation time Control batch n° 80901 Normal (endogenous coagulation [4]; Ethylene Glycol gallate 75 μM): 46.5 s | Coagulation time Control batch n° 80901 Path (endogenous coagulation [4]; Ethylene Glycol gallate 75 μM): 67.4 s | Coagulation time Plasma (LA) MA 030 (endogenous coagulation [4]; Ethylene Glycol gallate 75 μM): 50.4 s | Coagulation time Plasma def f VIIIc (endogenous coagulation [4]; Ethylene Glycol gallate 75 μM): 38.6 s | Coagulation time Plasmas Heparins Batch 1635 (endogenous coagulation [4]; Ethylene Glycol gallate 75 μM): 48.3 s | Coagulation time Plasmas Heparins Batch 1726 (endogenous coagulation [4]; Ethylene Glycol gallate 75 μM): 86.6 s | Coagulation time Control batch n° 80901 Normal (endogenous coagulation [4]; Ethylene Glycol gallate 100 μM): 38.4 s | Coagulation time Control batch n° 80901 Path (endogenous coagulation [4]; Ethylene Glycol gallate 100 μM): 46.2 s | Coagulation time Plasma (LA) MA 030 (endogenous coagulation [4]; Ethylene Glycol gallate 100 μM): 47.5 s | Coagulation time Plasma def f VIIIc (endogenous coagulation [4]; Ethylene Glycol gallate 100 μM): 38.2 s | Coagulation time Plasmas Heparins Batch 1635 (endogenous coagulation [4]; Ethylene Glycol gallate 100 μM): 48.0 s | Coagulation time Plasmas Heparins Batch 1726 (endogenous coagulation [4]; Ethylene Glycol gallate 100 μM): 80.0 s | Coagulation time Control batch n° 80901 Normal (endogenous coagulation [4]; Ethylene Glycol gallate 200 μM): 35.2 s | Coagulation time Control batch n° 80901 Path (endogenous coagulation [4]; Ethylene Glycol gallate 200 μM): 42.5 s | Coagulation time Plasma (LA) MA 030 (endogenous coagulation [4]; Ethylene Glycol gallate 200 μM): 46.7 s | Coagulation time Plasma def f VIIIc (endogenous coagulation [4]; Ethylene Glycol gallate 200 μM): 37.7 s | Coagulation time Plasmas Heparins Batch 1635 (endogenous coagulation [4]; Ethylene Glycol gallate 200 μM): 48.5 s | Coagulation time Plasmas Heparins Batch 1726 (endogenous coagulation [4]; Ethylene Glycol gallate 200 μM): 75.4 s | Coagulation time Control batch n° 80901 Normal (endogenous coagulation [4]; Ethylene Glycol gallate 300 μM): 34.3 s | Coagulation time Control batch n° 80901 Path (endogenous coagulation [4]; Ethylene Glycol gallate 300 μM): 39.6 s | Coagulation time Plasma (LA) MA 030 (endogenous coagulation [4]; Ethylene Glycol gallate 300 μM): 44.2 s | Coagulation time Plasma def f VIIIc (endogenous coagulation [4]; Ethylene Glycol gallate 300 μM): 37.5 s | Coagulation time Plasmas Heparins Batch 1635 (endogenous coagulation [4]; Ethylene Glycol gallate 300 μM): 47.7 s | Coagulation time Plasmas Heparins Batch 1726 (endogenous coagulation [4]; Ethylene Glycol gallate 300 μM): 73.7 s | Coagulation time Control batch n° 80901 Normal (endogenous coagulation [4]; Ethylene Glycol gallate 400 μM): 32.9 s | Coagulation time Control batch n° 80901 Path (endogenous coagulation [4]; Ethylene Glycol gallate 400 μM): 39.6 s | Coagulation time Plasma (LA) MA 030 (endogenous coagulation [4]; Ethylene Glycol gallate 400 μM): 43.4 s | Coagulation time Plasma def f VIIIc (endogenous coagulation [4]; Ethylene Glycol gallate 400 μM): 37.2 s | Coagulation time Plasmas Heparins Batch 1635 (endogenous coagulation [4]; Ethylene Glycol gallate 400 μM): 47.0 s | Coagulation time Plasmas Heparins Batch 1726 (endogenous coagulation [4]; Ethylene Glycol gallate 400 μM): 75.1 s | Coagulation time Control batch n° 80901 Normal (endogenous coagulation [4]; Ethylene Glycol gallate 500 μM): 32.6 s | Coagulation time Control batch n° 80901 Path (endogenous coagulation [4]; Ethylene Glycol gallate 500 μM): 48.5 s | Coagulation time Plasma (LA) MA 030 (endogenous coagulation [4]; Ethylene Glycol gallate 500 μM): 43.0 s | Coagulation time Plasma def f VIIIc (endogenous coagulation [4]; Ethylene Glycol gallate 500 μM): 37.5 s | Coagulation time Plasmas Heparins Batch 1635 (endogenous coagulation [4]; Ethylene Glycol gallate 500 μM): 47.3 s | Coagulation time Plasmas Heparins Batch 1726 (endogenous coagulation [4]; Ethylene Glycol gallate 500 μM): 76.1 s | Coagulation time Control batch n° 80901 Normal (endogenous coagulation [4]; [5]): 33.4 s | Coagulation time Control batch n° 80901 Path (endogenous coagulation [4]; [5]): 51.5 s | Coagulation time Plasma (LA) MA 030 (endogenous coagulation [4]; [5]): 42.5 s | Coagulation time Plasma def f VIIIc (endogenous coagulation [4]; [5]): 37.1 s | Coagulation time Plasmas Heparins Batch 1635 (endogenous coagulation [4]; [5]): 47.9 s | Coagulation time Plasmas Heparins Batch 1726 (endogenous coagulation [4]; [5]): 76.3 s | Coagulation times compared with the reference reagent, CK-Prest (endogenous coagulation [2]; all plasmas of the table, derivative 100 μM): nearest results to those obtained with the reference reagent | Coagulation time, CCN (endogenous coagulation [2]): 32.7 s | Coagulation time, CCP (endogenous coagulation [2]): 50.5 s | Coagulation time, Heparins Batch 0811 (endogenous coagulation [2]): 112.5 s | Coagulation time, Heparins Batch 1706 (endogenous coagulation [2]): 65.7 s | Coagulation time, Lupus Batch 021 (endogenous coagulation [2]): 45.7 s | Coagulation time, Pool N LIK 800 (endogenous coagulation [2]): 37.4 s

ethylene diamine gallate [H2N—(CH2)n—NH2 n=2]
Coagulation time, f VII def 25% (endogenous coagulation [1]): 113.0 s | Coagulation time, CCN (endogenous coagulation [2]): 138.1 s | Coagulation time, CCP (endogenous coagulation [2]): 177.9 s | Coagulation time, Heparins Batch 0811 (endogenous coagulation [2]): >300.0 s | Coagulation time, Heparins Batch 1706 (endogenous coagulation [2]): 228.4 s | Coagulation time, Lupus Batch 021 (endogenous coagulation [2]): 167.6 s | Coagulation time, Pool N LIK 800 (endogenous coagulation [2]): 111.5 s
